25 compounds from patent publication US8748624B2, “Picolinamido-propanoic acid derivatives useful as glucagon receptor antagonists” (Janssen Pharmaceutica NV, priority 2011, dated 2014) can be followed below.

The structures appear in SMILES notation.

Experiment [1] addresses human glucagon receptor (GCGR) (Homo sapiens (Human), UniProt P47871). Description: Inhibition of 125I-glucagon binding to membranes from HEK293 cells expressing the human glucagon receptor. Conditions: membranes of hGluc-1 HEK cells, 125I-glucagon 0.3 nM, 2 hours room temperature; IC50 converted to Ki; average if tested more than once. In a few lines: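 Filtration binding assay on membranes from HEK293 cells stably expressing full-length human GCGR, 6 μg protein/well, with 0.3 nM ¹²⁵I-glucagon plus compound, 2 h at room temperature. Buffer: 50 mM HEPES pH 7.4, 5 mM MgCl2, 1 mM CaCl2, 0.2% BSA. IC50 by non-linear regression, converted to Ki.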

For another experiment, the target named is human GCGR (Homo sapiens (Human), UniProt P47871). Kind of experiment: Cellular functional assay, cAMP readout (glucagon-stimulated cAMP in HEK293 cells expressing human GCGR). The class given is cell-based. The note with it: hGluc-1 HEK cells, LANCE TR-FRET, IC50 converted to Ki, average if tested more than once. In a few lines:
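HEK293 cells stably transfected with full-length human GCGR were exposed to compound for 30 min before a 5-min challenge with […] (final) glucagon. Readout was TR-FRET (LANCE) cAMP versus standard curve; IC50s fitted by non-linear regression and converted to Ki values.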

Sequence of human GCGR (P47871 26-477): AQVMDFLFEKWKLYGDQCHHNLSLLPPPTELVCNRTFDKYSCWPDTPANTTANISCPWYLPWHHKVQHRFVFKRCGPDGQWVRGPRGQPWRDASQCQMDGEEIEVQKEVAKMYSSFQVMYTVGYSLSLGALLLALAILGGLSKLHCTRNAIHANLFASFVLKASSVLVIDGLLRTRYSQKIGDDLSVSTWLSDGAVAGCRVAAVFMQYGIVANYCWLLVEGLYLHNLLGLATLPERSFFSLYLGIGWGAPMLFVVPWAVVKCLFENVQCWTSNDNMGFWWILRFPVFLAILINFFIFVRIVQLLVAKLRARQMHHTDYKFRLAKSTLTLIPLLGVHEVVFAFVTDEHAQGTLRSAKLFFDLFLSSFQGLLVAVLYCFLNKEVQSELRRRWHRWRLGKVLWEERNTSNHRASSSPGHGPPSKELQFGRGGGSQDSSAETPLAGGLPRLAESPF
Sequence of human glucagon receptor (GCGR) (P47871 26-477): as above

Consider `O=C(O)CCNC(=O)c1ccc(-c2cc(F)c(F)cc2C(=O)Nc2ccc(-c3ccc(C(F)(F)F)cc3)cc2)cn1` [Compound 96, 3-(5-(4,5-difluoro-2-((4′-(trifluoromethyl)-[1,1′-biphenyl]-4-yl)carbamoyl)phenyl)picolinamido)propanoic acid], for which the figures for the Ki (in experiment [1]; on human GCGR) were 33.8 nM and 176 nM, respectively.

As to `O=C(O)CCNC(=O)c1ccc(-c2cc(F)c(F)cc2C(=O)Nc2ccc(-c3ccc(Cl)cc3)cc2)cn1` [Compound 97, 3-(5-(2-((4′-chloro-[1,1′-biphenyl]-4-yl)carbamoyl)-4,5-difluorophenyl)picolinamido)propanoic acid], the Ki in experiment [1] was 57.4 nM; at human GCGR, 225 nM.

For `O=C(O)CCNC(=O)c1ccc(-c2cc(F)c(F)cc2CNc2ccc(-c3ccc(F)c(C(F)(F)F)c3)c(Cl)c2)cn1` [Compound 102, 3-(5-(2-(((2-chloro-4′-fluoro-3′-(trifluoromethyl)-[1,1′-biphenyl]-4-yl)amino)methyl)-4,5-difluorophenyl)picolinamido)propanoic acid], the Ki was determined as 21.3 nM in experiment [1] and 41.8 nM at human GCGR.

Turning to `O=C(O)CCNC(=O)c1ccc(-c2cc(F)c(F)cc2CNc2ccc(-c3ccc(Cl)cc3)c(Cl)c2)cn1` [Compound 103, 3-(5-(2-(((2,4′-dichloro-[1,1′-biphenyl]-4-yl)amino)methyl)-4,5-difluorophenyl)picolinamido)propanoic acid], the results for the Ki (in experiment [1]; on human GCGR) were 22.9 nM and 68.9 nM, respectively.

Turning to `O=C(O)CCNC(=O)c1ccc(-c2cc(F)c(F)cc2CNc2ccc(-c3ccc(Cl)cc3F)c(Cl)c2)cn1` [Compound 104, 3-(5-(2-(((2,4′-dichloro-2′-fluoro-[1,1′-biphenyl]-4-yl)amino)methyl)-4,5-difluorophenyl)picolinamido)propanoic acid], the figures for the Ki (in experiment [1]; on human GCGR) were 25.4 nM and 84.4 nM, respectively.

With `Cc1ccc(-c2ccc(NCc3cc(F)c(F)cc3-c3ccc(C(=O)NCCC(=O)O)nc3)cc2Cl)c(F)c1` [Compound 105, 3-(5-(2-(((2-chloro-2′-fluoro-4′-methyl-[1,1′-biphenyl]-4-yl)amino)methyl)-4,5-difluorophenyl)picolinamido)propanoic acid], the Ki was 33 nM in experiment [1] and 255 nM on human GCGR.

For `O=C(O)CCNC(=O)c1ccc(-c2cc(F)c(F)cc2CNc2ccc(-c3ccc(Cl)c(C(F)(F)F)c3)c(Cl)c2)cn1` [Compound 106, 3-(5-(2-(((2,4′-dichloro-3′-(trifluoromethyl)-[1,1′-biphenyl]-4-yl)amino)methyl)-4,5-difluorophenyl)picolinamido)propanoic acid], the Ki amounted to 26.1 nM in experiment [1] and 320 nM at human GCGR.

Turning to `O=C(O)CCNC(=O)c1ccc(-c2cc(F)c(F)cc2CNc2ccc(-c3cccc(C(F)(F)F)c3Cl)c(Cl)c2)cn1` [Compound 107, 3-(5-(2-(((2,2′-dichloro-3′-(trifluoromethyl)-[1,1′-biphenyl]-4-yl)amino)methyl)-4,5-difluorophenyl)picolinamido)propanoic acid], the results for the Ki (in experiment [1]; on human GCGR) were 23.7 nM and 54.8 nM, respectively.

As for `O=C(O)CCNC(=O)c1ccc(-c2cc(F)c(F)cc2CNc2ccc(-c3ccc(Cl)cc3Cl)c(Cl)c2)cn1` [Compound 108, 3-(5-(4,5-difluoro-2-(((2,2′,4′-trichloro-[1,1′-biphenyl]-4-yl)amino)methyl)phenyl)picolinamido)propanoic acid], the Ki in experiment [1] is 23.9 nM; at human GCGR it was 84.9 nM.

For the compound `N#Cc1cc(NCc2cc(F)c(F)cc2-c2ccc(C(=O)NCCC(=O)O)nc2)ccc1-c1ccc(F)c(C(F)(F)F)c1` [Compound 109, 3-(5-(2-(((2-cyano-4′-fluoro-3′-(trifluoromethyl)-[1,1′-biphenyl]-4-yl)amino)methyl)-4,5-difluorophenyl)picolinamido)propanoic acid], the Ki in experiment [1] turned out to be 30.4 nM; at human GCGR, 115 nM.

On to `N#Cc1cc(NCc2cc(F)c(F)cc2-c2ccc(C(=O)NCCC(=O)O)nc2)ccc1-c1ccc(Cl)cc1` [Compound 110, 3-(5-(2-(((4′-chloro-2-cyano-[1,1′-biphenyl]-4-yl)amino)methyl)-4,5-difluorophenyl)picolinamido)propanoic acid], for which the Ki in experiment [1] was 43.5 nM; on human GCGR, 170 nM.

As to `N#Cc1cc(NCc2cc(F)c(F)cc2-c2ccc(C(=O)NCCC(=O)O)nc2)ccc1-c1ccc(Cl)cc1F` [Compound 111, 3-(5-(2-(((4′-chloro-2-cyano-2′-fluoro-[1,1′-biphenyl]-4-yl)amino)methyl)-4,5-difluorophenyl)picolinamido)propanoic acid], the Ki was found to be 69.6 nM in experiment [1] and 180 nM on human GCGR.

Consider `Cc1ccc(-c2ccc(NCc3cc(F)c(F)cc3-c3ccc(C(=O)NCCC(=O)O)nc3)cc2C#N)c(F)c1` [Compound 112, 3-(5-(2-(((2-cyano-2′-fluoro-4′-methyl-[1,1′-biphenyl]-4-yl)amino)methyl)-4,5-difluorophenyl)picolinamido)propanoic acid], for which the results for the Ki (in experiment [1]; on human GCGR) were 76.5 nM and 280 nM, respectively.

As for `N#Cc1cc(NCc2cc(F)c(F)cc2-c2ccc(C(=O)NCCC(=O)O)nc2)ccc1-c1ccc(Cl)c(C(F)(F)F)c1` [Compound 113, 3-(5-(2-(((4′-chloro-2-cyano-3′-(trifluoromethyl)-[1,1′-biphenyl]-4-yl)amino)methyl)-4,5-difluorophenyl)picolinamido)propanoic acid], the Ki in experiment [1] was 58.3 nM; on human GCGR it was 650 nM.

`N#Cc1cc(NCc2cc(F)c(F)cc2-c2ccc(C(=O)NCCC(=O)O)nc2)ccc1-c1ccc(Cl)cc1Cl` [Compound 114, 3-(5-(2-(((2′,4′-dichloro-2-cyano-[1,1′-biphenyl]-4-yl)amino)methyl)-4,5-difluorophenyl)picolinamido)propanoic acid]: the Ki in experiment [1] is 40.4 nM; on human GCGR, 73.5 nM.

On to `Cc1cc(-c2ccc(NCc3cc(F)c(F)cc3-c3ccc(C(=O)NCCC(=O)O)nc3)cc2C#N)ccc1F` [Compound 115, 3-(5-(2-(((2-cyano-4′-fluoro-3′-methyl-[1,1′-biphenyl]-4-yl)amino)methyl)-4,5-difluorophenyl)picolinamido)propanoic acid], for which the Ki in experiment [1] came out at 95.7 nM; at human GCGR it was 500 nM.

In the case of `O=C(O)CCNC(=O)c1ccc(-c2cc(F)c(F)cc2CNc2ccc(-c3ccc(Cl)cc3)cc2)cn1` [Compound 117, 3-(5-(2-(((4′-chloro-[1,1′-biphenyl]-4-yl)amino)methyl)-4,5-difluorophenyl)picolinamido)propanoic acid], the results for the Ki (in experiment [1]; at human GCGR) were 43.5 nM and 160 nM, respectively.

`O=C(O)CCNC(=O)c1ccc(-c2cc(F)c(F)cc2CNc2ccc(-c3ccc(Cl)cc3Cl)cc2)cn1` [Compound 118, 3-(5-(2-(((2′,4′-dichloro-[1,1′-biphenyl]-4-yl)amino)methyl)-4,5-difluorophenyl)picolinamido)propanoic acid]: the Ki in experiment [1] is 67.8 nM; at human GCGR it was 120 nM.

As for `O=C(O)CCNC(=O)c1ccc(-c2cc(Cl)ccc2CNc2ccc(-c3cccc(OC(F)(F)F)c3)cc2)cn1` [Compound 129, 3-(5-(5-chloro-2-(((3′-(trifluoromethoxy)-[1,1′-biphenyl]-4-yl)amino)methyl)phenyl)picolinamido)propanoic acid], the Ki in experiment [1] amounted to 84.6 nM; on human GCGR, 700 nM.

For the compound `O=C(O)CCNC(=O)c1ccc(-c2cc(Cl)ccc2CNc2ccc(-c3cccc(C(F)(F)F)c3)cc2)cn1` [Compound 130, 3-(5-(5-chloro-2-(((3′-(trifluoromethyl)-[1,1′-biphenyl]-4-yl)amino)methyl)phenyl)picolinamido)propanoic acid], the results for the Ki (in experiment [1]; on human GCGR) were 62.6 nM and 390 nM, respectively.

For `O=C(O)CCNC(=O)c1ccc(-c2cc(Cl)ccc2CNc2ccc(-c3ccccc3C(F)(F)F)cc2)cn1` [Compound 131, 3-(5-(5-chloro-2-(((2′-(trifluoromethyl)-[1,1′-biphenyl]-4-yl)amino)methyl)phenyl)picolinamido)propanoic acid], the Ki is 71.3 nM in experiment [1] and 1750 nM on human GCGR.

Turning to `O=C(O)CCNC(=O)c1ccc(-c2cc(Cl)ccc2CNc2ccc(-c3ccccc3OC(F)(F)F)cc2)cn1` [Compound 132, 3-(5-(5-chloro-2-(((2′-(trifluoromethoxy)-[1,1′-biphenyl]-4-yl)amino)methyl)phenyl)picolinamido)propanoic acid], the Ki in experiment [1] is 123 nM; on human GCGR, 1930 nM.

Take `O=C(O)CCNC(=O)c1ccc(-c2cc(Cl)ccc2CNc2ccc(-c3ccccc3F)cc2)cn1` [Compound 133, 3-(5-(5-chloro-2-(((2′-fluoro-[1,1′-biphenyl]-4-yl)amino)methyl)phenyl)picolinamido)propanoic acid]: the Ki in experiment [1] was 104 nM; at human GCGR it was 2000 nM.

Consider `O=C(O)CCNC(=O)c1ccc(-c2cc(Cl)ccc2CNc2ccc(-c3cccc(F)c3)cc2)cn1` [Compound 134, 3-(5-(5-chloro-2-(((3′-fluoro-[1,1′-biphenyl]-4-yl)amino)methyl)phenyl)picolinamido)propanoic acid], for which the Ki in experiment [1] turned out to be 38.3 nM; on human GCGR, 600 nM.

For the compound `O=C(O)CCNC(=O)c1ccc(-c2cc(Cl)ccc2CNc2ccc(-c3ccccc3Cl)cc2)cn1` [Compound 135, 3-(5-(5-chloro-2-(((2′-chloro-[1,1′-biphenyl]-4-yl)amino)methyl)phenyl)picolinamido)propanoic acid], the Ki in experiment [1] worked out at 63.9 nM; on human GCGR, 3000 nM.
